Measured values from article PMC9290024 (ACS Medicinal Chemistry Letters, 2022).

Legend:
[1] = Stability in mouse hepatocytes; assay type: in vitro ADME; settings: 0.5 μM, 60 min
[2] = Stability in human hepatocytes; assay type: in vitro ADME; settings: 0.5 μM, 120 min
[3] = Stability in rat hepatocytes; assay type: in vitro ADME; settings: 0.5 μM, 60 min
[4] = Pharmacokinetics in CD-1 IGS mouse; settings: mouse PK studies; for parent recovered in feces following iv administration: data not shown

Row | scaled Clint, mouse hepatocytes [1] | scaled Clint, human hepatocytes [2] | scaled Clint, rat hepatocytes [3] | oral absorption [4] | parent recovered in feces following iv administration [4] | Compound
1 | 721 mL min^–1 kg^–1 | 51 mL min^–1 kg^–1 | 137 mL min^–1 kg^–1 |  |  | Cc1ccc(F)c2cc(C(=O)N[C@@H]3CCC[C@H](N4CC[C@H](N(C)S(C)(=O)=O)C4)C3)[nH]c12 [EPZ-719, reference compound]
2 | 103 mL min^–1 kg^–1 | 5 mL min^–1 kg^–1 | 72 mL min^–1 kg^–1 | reasonable oral absorption | 17–30% | CC(=O)N1CC[C@H]2[C@@H]1CCN2[C@H]1CCC[C@@H](NC(=O)c2cc3c(F)ccc(C)c3[nH]2)C1 [compound 9]
3 | 678 mL min^–1 kg^–1 | 32 mL min^–1 kg^–1 | 283 mL min^–1 kg^–1 |  |  | CC(=O)N1CCN(c2cccc(NC(=O)c3cc4c(F)ccc(C)c4[nH]3)c2)CC1 [compound 3]
4 | 216 mL min^–1 kg^–1 | 9 mL min^–1 kg^–1 | 154 mL min^–1 kg^–1 |  |  | CC(=O)N1CCN([C@H]2CCC[C@@H](NC(=O)c3cc4c(F)ccc(C)c4[nH]3)C2)CC1 [EZM0414]
5 | 425 mL min^–1 kg^–1 | 23 mL min^–1 kg^–1 | 69 mL min^–1 kg^–1 |  |  | Cc1ccc(F)c2cc(C(=O)N[C@@H]3CCC[C@H](N4CCN5C(=O)CC[C@H]5C4)C3)[nH]c12 [compound 7]
6 | 889 mL min^–1 kg^–1 | 18 mL min^–1 kg^–1 | 265 mL min^–1 kg^–1 | reasonable oral absorption | 17–30% | CC(=O)N1CC[C@H]2CN([C@H]3CCC[C@@H](NC(=O)c4cc5c(F)ccc(C)c5[nH]4)C3)C[C@H]21 [compound 8]
